Experimental data published in ChEMBL document CHEMBL3885861, “Open TG-GATES”.

Organism: Rattus norvegicus
Assay: Open TG-GATES - Regimen: Daily Repeat
Format: toxicity, organism-based, Sprague-Dawley
Set-up: regimen Daily Repeat, gender Male, age 6 weeks
Conditions: in vivo, po, 0 mg/kg, route gavage, dose level Control; for APTT / Bas / Eos / Fbg / Hb / Ht / Lym / MCH / MCHC / MCV / Mono / Neu / PT / Plat / RBC / Ret / WBC: tissue Blood; for KIDNEY_L / KIDNEY_R / KIDNEY_TOTAL: tissue Kidney; for LIVER: tissue Liver; for A/G / ALP / ALT / AST / BUN / CRE / Ca / Cl / DBIL / GLC / IP / LDH / Na / PL / RALB / TBIL / TC / TG / TP / gamma-GTP: tissue Plasma

NC(N)=Nc1nc(CSCCC(N)=NS(N)(=O)=O)cs1 [FAMOTIDINE]
TERMINAL_BW (72 h, time 3 day): 227 g
APTT (72 h, time 3 day): 19.5 s
Bas (72 h, time 3 day): 0%
Eos (72 h, time 3 day): 1%
Fbg (72 h, time 3 day): 221.4 mg/dL
Hb (72 h, time 3 day): 13.5 g/dL
Ht (72 h, time 3 day): 37.4%
Lym (72 h, time 3 day): 73.8%
MCH (72 h, time 3 day): 22.4 pg
MCHC (72 h, time 3 day): 36.1%
MCV (72 h, time 3 day): 61.9 fL
Mono (72 h, time 3 day): 3.2%
Neu (72 h, time 3 day): 20.6%
PT (72 h, time 3 day): 11.8 s
Plat (72 h, time 3 day): 125.1 x10_4/uL
RBC (72 h, time 3 day): 604.6 x10_4/ul
Ret (72 h, time 3 day): 5.7%
WBC (72 h, time 3 day): 75.1 x10_2/uL
KIDNEY_L (72 h, time 3 day): 1 g
KIDNEY_R (72 h, time 3 day): 1 g
KIDNEY_TOTAL (72 h, time 3 day): 2 g
LIVER (72 h, time 3 day): 10.4 g
A/G (72 h, time 3 day): 1.5
ALP (72 h, time 3 day): 999.6 IU/L
ALT (72 h, time 3 day): 31.4 IU/L
AST (72 h, time 3 day): 64.2 IU/L
BUN (72 h, time 3 day): 13.8 mg/dL
CRE (72 h, time 3 day): 0.4 mg/dL
Ca (72 h, time 3 day): 10.7 mg/dL
Cl (72 h, time 3 day): 103.2 meq/L
DBIL (72 h, time 3 day): 0.086 mg/dL
GLC (72 h, time 3 day): 190.6 mg/dL
IP (72 h, time 3 day): 7.2 mg/dL
LDH (72 h, time 3 day): 194 IU/L
Na (72 h, time 3 day): 139.8 meq/L
PL (72 h, time 3 day): 139.6 mg/dL
RALB (72 h, time 3 day): 3.4 g/dL
TBIL (72 h, time 3 day): 0.1 mg/dL
TC (72 h, time 3 day): 76.6 mg/dL
TG (72 h, time 3 day): 78.4 mg/dL
TP (72 h, time 3 day): 5.5 g/dL
gamma-GTP (72 h, time 3 day): 1 IU/L
TERMINAL_BW ([…], time 7 day): 257.4 g
TERMINAL_BW ([…], time 14 day): 314.4 g
TERMINAL_BW ([…], time 28 day): 376 g
APTT ([…], time 7 day): 20.1 s
Bas ([…], time 7 day): 0%
Eos ([…], time 7 day): 0.8%
Fbg ([…], time 7 day): 230 mg/dL
Hb ([…], time 7 day): 13.7 g/dL
Ht ([…], time 7 day): 38.3%
Lym ([…], time 7 day): 80.4%
MCH ([…], time 7 day): 22.2 pg
MCHC ([…], time 7 day): 35.8%
MCV ([…], time 7 day): 62 fL
Mono ([…], time 7 day): 2.4%
Neu ([…], time 7 day): 14.8%
PT ([…], time 7 day): 11.8 s
Plat ([…], time 7 day): 126.2 x10_4/uL
RBC ([…], time 7 day): 618.2 x10_4/ul
Ret ([…], time 7 day): 5%
WBC ([…], time 7 day): 82.2 x10_2/uL
APTT ([…], time 14 day): 22.3 s
Bas ([…], time 14 day): 0%
Eos ([…], time 14 day): 1%
Fbg ([…], time 14 day): 229.4 mg/dL
Hb ([…], time 14 day): 14.3 g/dL
Ht ([…], time 14 day): 41.9%
Lym ([…], time 14 day): 81.8%
MCH ([…], time 14 day): 20.8 pg
MCHC ([…], time 14 day): 34.1%
MCV ([…], time 14 day): 60.9 fL
Mono ([…], time 14 day): 1.6%
Neu ([…], time 14 day): 14.2%
PT ([…], time 14 day): 12.3 s
Plat ([…], time 14 day): 118.4 x10_4/uL
RBC ([…], time 14 day): 689 x10_4/ul
Ret ([…], time 14 day): 4.5%
WBC ([…], time 14 day): 112.3 x10_2/uL
APTT ([…], time 28 day): 21.3 s
Bas ([…], time 28 day): 0%
Eos ([…], time 28 day): 1%
Fbg ([…], time 28 day): 233.6 mg/dL
Hb ([…], time 28 day): 15.4 g/dL
Ht ([…], time 28 day): 43.5%
Lym ([…], time 28 day): 80.8%
MCH ([…], time 28 day): 20 pg
MCHC ([…], time 28 day): 35.3%
MCV ([…], time 28 day): 56.6 fL
Mono ([…], time 28 day): 2.2%
Neu ([…], time 28 day): 14.6%
PT ([…], time 28 day): 12.2 s
Plat ([…], time 28 day): 98.4 x10_4/uL
RBC ([…], time 28 day): 769 x10_4/ul
Ret ([…], time 28 day): 2.3%
WBC ([…], time 28 day): 84.1 x10_2/uL
KIDNEY_L ([…], time 7 day): 1.1 g
KIDNEY_R ([…], time 7 day): 1.1 g
KIDNEY_TOTAL ([…], time 7 day): 2.2 g
KIDNEY_L ([…], time 14 day): 1.3 g
KIDNEY_R ([…], time 14 day): 1.2 g
KIDNEY_TOTAL ([…], time 14 day): 2.5 g
KIDNEY_L ([…], time 28 day): 1.4 g
KIDNEY_R ([…], time 28 day): 1.4 g
KIDNEY_TOTAL ([…], time 28 day): 2.8 g
LIVER ([…], time 7 day): 12.2 g
LIVER ([…], time 14 day): 14 g
LIVER ([…], time 28 day): 15.1 g
A/G ([…], time 7 day): 1.5
ALP ([…], time 7 day): 1109 IU/L
ALT ([…], time 7 day): 39.6 IU/L
AST ([…], time 7 day): 71.4 IU/L
BUN ([…], time 7 day): 16.6 mg/dL
CRE ([…], time 7 day): 0.4 mg/dL
Ca ([…], time 7 day): 10.7 mg/dL
Cl ([…], time 7 day): 102.8 meq/L
DBIL ([…], time 7 day): 0.094 mg/dL
GLC ([…], time 7 day): 200.6 mg/dL
IP ([…], time 7 day): 7.5 mg/dL
LDH ([…], time 7 day): 176.2 IU/L
Na ([…], time 7 day): 140.6 meq/L
PL ([…], time 7 day): 156.6 mg/dL
RALB ([…], time 7 day): 3.5 g/dL
TBIL ([…], time 7 day): 0.2 mg/dL
TC ([…], time 7 day): 78 mg/dL
TG ([…], time 7 day): 101.8 mg/dL
TP ([…], time 7 day): 5.7 g/dL
gamma-GTP ([…], time 7 day): 0.8 IU/L
A/G ([…], time 14 day): 1.5
ALP ([…], time 14 day): 794.6 IU/L
ALT ([…], time 14 day): 33.4 IU/L
AST ([…], time 14 day): 62 IU/L
BUN ([…], time 14 day): 15.8 mg/dL
CRE ([…], time 14 day): 0.5 mg/dL
Ca ([…], time 14 day): 10.8 mg/dL
Cl ([…], time 14 day): 103.2 meq/L
DBIL ([…], time 14 day): 0.096 mg/dL
GLC ([…], time 14 day): 208 mg/dL
IP ([…], time 14 day): 7.2 mg/dL
LDH ([…], time 14 day): 153.2 IU/L
Na ([…], time 14 day): 140.4 meq/L
PL ([…], time 14 day): 146.6 mg/dL
RALB ([…], time 14 day): 3.4 g/dL
TBIL ([…], time 14 day): 0.2 mg/dL
TC ([…], time 14 day): 75 mg/dL
TG ([…], time 14 day): 96.4 mg/dL
TP ([…], time 14 day): 5.7 g/dL
gamma-GTP ([…], time 14 day): 1.4 IU/L
A/G ([…], time 28 day): 1.3
ALP ([…], time 28 day): 664.6 IU/L
ALT ([…], time 28 day): 32.4 IU/L
AST ([…], time 28 day): 59 IU/L
BUN ([…], time 28 day): 18.6 mg/dL
CRE ([…], time 28 day): 0.6 mg/dL
Ca ([…], time 28 day): 10.2 mg/dL
Cl ([…], time 28 day): 103.6 meq/L
DBIL ([…], time 28 day): 0.07 mg/dL
GLC ([…], time 28 day): 217.4 mg/dL
IP ([…], time 28 day): 6.7 mg/dL
LDH ([…], time 28 day): 123 IU/L
Na ([…], time 28 day): 141 meq/L
PL ([…], time 28 day): 141.8 mg/dL
RALB ([…], time 28 day): 3.5 g/dL
TBIL ([…], time 28 day): 0.1 mg/dL
TC ([…], time 28 day): 74.6 mg/dL
TG ([…], time 28 day): 82.8 mg/dL
TP ([…], time 28 day): 6.1 g/dL
gamma-GTP ([…], time 28 day): 1 IU/L
